Measurements reported in publication PMC7673538 (PLoS Biology, 2020).

System: HeLa R19 cells
Test: not given
Settings: human, monkey

Row | SMILES | cytotoxicity (in words)
1 | COc1ccc(N(Cc2ccc(F)cc2)C(=O)c2cccs2)cc1 [Compound 5d, N-(4-Fluorobenzyl)-N-(4-methoxyphenyl)thiophene-2-carboxamide] | cytotoxicity in a similar range as the parental compound 1

System: HRV-A2
Test: microbe, parasite or virus in culture
Format: cell-based, human rhinovirus
Settings: Human rhinovirus sp., HRVA2, HeLa R19, read-out: EC50 HRV-A2

Row | SMILES | EC50 [µM]
2 | COc1ccc(N(Cc2ccc(F)cc2)C(=O)c2cccs2)cc1 [Compound 5d, N-(4-Fluorobenzyl)-N-(4-methoxyphenyl)thiophene-2-carboxamide] | > 30

System: not listed separately
Test: in vitro
Settings: monkey, CC50

Row | SMILES | CC50 [µM]
3 | COc1ccc(N(Cc2ccc(F)cc2)C(=O)c2cccs2)cc1 [Compound 5d, N-(4-Fluorobenzyl)-N-(4-methoxyphenyl)thiophene-2-carboxamide] | 66 ± 1.05

Same assay, conditions: monkey, CC50 BGM Average

Row | SMILES | CC50 [µM]
4 | COc1ccc(N(Cc2ccc(F)cc2)C(=O)c2cccs2)cc1 [Compound 5d, N-(4-Fluorobenzyl)-N-(4-methoxyphenyl)thiophene-2-carboxamide] | 66

Same assay, conditions: monkey, Exp 1 CC50 BGM

Row | SMILES | CC50 [µM]
5 | COc1ccc(N(Cc2ccc(F)cc2)C(=O)c2cccs2)cc1 [Compound 5d, N-(4-Fluorobenzyl)-N-(4-methoxyphenyl)thiophene-2-carboxamide] | 65

Same assay, conditions: monkey, Exp 2 CC50 BGM

Row | SMILES | CC50 [µM]
6 | COc1ccc(N(Cc2ccc(F)cc2)C(=O)c2cccs2)cc1 [Compound 5d, N-(4-Fluorobenzyl)-N-(4-methoxyphenyl)thiophene-2-carboxamide] | 67.1

System: CV-A24
Test: microbe, parasite or virus in culture
Format: cell-based, coxsackievirus A24
Settings: Enterovirus C, CVA24, HeLa R19, read-out: EC50 CV-A24

Row | SMILES | EC50 [µM]
7 | COc1ccc(N(Cc2ccc(F)cc2)C(=O)c2cccs2)cc1 [Compound 5d, N-(4-Fluorobenzyl)-N-(4-methoxyphenyl)thiophene-2-carboxamide] | > 30

System: PV-1
Test: microbe, parasite or virus in culture
Format: cell-based, poliovirus 1
Settings: Enterovirus C, HeLa R19, read-out: EC50 PV-1

Row | SMILES | EC50 [µM]
8 | COc1ccc(N(Cc2ccc(F)cc2)C(=O)c2cccs2)cc1 [Compound 5d, N-(4-Fluorobenzyl)-N-(4-methoxyphenyl)thiophene-2-carboxamide] | > 30

System: not listed separately
Test: in vitro
Settings: human, CC50 Average

Row | SMILES | CC50 [µM]
9 | COc1ccc(N(Cc2ccc(F)cc2)C(=O)c2cccs2)cc1 [Compound 5d, N-(4-Fluorobenzyl)-N-(4-methoxyphenyl)thiophene-2-carboxamide] | > 30

Same assay, conditions: human, CC50 HelaR19 Average

Row | SMILES | CC50 [µM]
10 | COc1ccc(N(Cc2ccc(F)cc2)C(=O)c2cccs2)cc1 [Compound 5d, N-(4-Fluorobenzyl)-N-(4-methoxyphenyl)thiophene-2-carboxamide] | 53

Same assay, conditions: human, Exp 1 CC50

Row | SMILES | CC50 [µM]
11 | COc1ccc(N(Cc2ccc(F)cc2)C(=O)c2cccs2)cc1 [Compound 5d, N-(4-Fluorobenzyl)-N-(4-methoxyphenyl)thiophene-2-carboxamide] | > 30

Same assay, conditions: human, Exp 1 CC50 HelaR19

Row | SMILES | CC50 [µM]
12 | COc1ccc(N(Cc2ccc(F)cc2)C(=O)c2cccs2)cc1 [Compound 5d, N-(4-Fluorobenzyl)-N-(4-methoxyphenyl)thiophene-2-carboxamide] | 52

Same assay, conditions: human, Exp2 CC50

Row | SMILES | CC50 [µM]
13 | COc1ccc(N(Cc2ccc(F)cc2)C(=O)c2cccs2)cc1 [Compound 5d, N-(4-Fluorobenzyl)-N-(4-methoxyphenyl)thiophene-2-carboxamide] | > 30

Same assay, conditions: human, Exp 2 CC50 HelaR19

Row | SMILES | CC50 [µM]
14 | COc1ccc(N(Cc2ccc(F)cc2)C(=O)c2cccs2)cc1 [Compound 5d, N-(4-Fluorobenzyl)-N-(4-methoxyphenyl)thiophene-2-carboxamide] | 54.1

System: CV-B3
Test: microbe, parasite or virus in culture
Format: cell-based, coxsackievirus B3
Settings: not given

Row | SMILES | increase of antiviral activity against CV-B3
15 | COc1ccc(N(Cc2ccc(F)cc2)C(=O)c2cccs2)cc1 [Compound 5d, N-(4-Fluorobenzyl)-N-(4-methoxyphenyl)thiophene-2-carboxamide] | approximately 4 fold

Same assay, conditions: Enterovirus B, CVB3, HeLa R19, read-out: 50% effective concentration [EC50]

Row | SMILES | EC50 [µM]
16 | COc1ccc(N(Cc2ccc(F)cc2)C(=O)c2cccs2)cc1 [Compound 5d, N-(4-Fluorobenzyl)-N-(4-methoxyphenyl)thiophene-2-carboxamide] | 0.51 ± 0.05

Same assay, conditions: Enterovirus B, CVB3, HeLa R19, read-out: CV-B3 Exp 1 EC50

Row | SMILES | EC50 [µM]
17 | COc1ccc(N(Cc2ccc(F)cc2)C(=O)c2cccs2)cc1 [Compound 5d, N-(4-Fluorobenzyl)-N-(4-methoxyphenyl)thiophene-2-carboxamide] | 0.47

Same assay, conditions: Enterovirus B, CVB3, HeLa R19, read-out: CV-B3 Exp2 EC50

Row | SMILES | EC50 [µM]
18 | COc1ccc(N(Cc2ccc(F)cc2)C(=O)c2cccs2)cc1 [Compound 5d, N-(4-Fluorobenzyl)-N-(4-methoxyphenyl)thiophene-2-carboxamide] | 0.55

Same assay, conditions: Enterovirus B, CVB3, HeLa R19, read-out: Exp 1 EC50 HelaR19

Row | SMILES | EC50 [µM]
19 | COc1ccc(N(Cc2ccc(F)cc2)C(=O)c2cccs2)cc1 [Compound 5d, N-(4-Fluorobenzyl)-N-(4-methoxyphenyl)thiophene-2-carboxamide] | 0.52

Same assay, conditions: Enterovirus B, CVB3, HeLa R19, read-out: Exp 2 EC50 HelaR19

Row | SMILES | EC50 [µM]
20 | COc1ccc(N(Cc2ccc(F)cc2)C(=O)c2cccs2)cc1 [Compound 5d, N-(4-Fluorobenzyl)-N-(4-methoxyphenyl)thiophene-2-carboxamide] | 0.31

System: EV-A71
Test: microbe, parasite or virus in culture
Format: cell-based, enterovirus A71
Settings: Enterovirus A, EVA71, HeLa R19, read-out: EC50 EV-A71

Row | SMILES | EC50 [µM]
21 | COc1ccc(N(Cc2ccc(F)cc2)C(=O)c2cccs2)cc1 [Compound 5d, N-(4-Fluorobenzyl)-N-(4-methoxyphenyl)thiophene-2-carboxamide] | > 30

System: not listed separately
Test: in vitro
Settings: human, CC50 Hap1 Average

Row | SMILES | CC50 [µM]
22 | COc1ccc(N(Cc2ccc(F)cc2)C(=O)c2cccs2)cc1 [Compound 5d, N-(4-Fluorobenzyl)-N-(4-methoxyphenyl)thiophene-2-carboxamide] | 53.9

Same assay, conditions: human, Exp 1 CC50 Hap1

Row | SMILES | CC50 [µM]
23 | COc1ccc(N(Cc2ccc(F)cc2)C(=O)c2cccs2)cc1 [Compound 5d, N-(4-Fluorobenzyl)-N-(4-methoxyphenyl)thiophene-2-carboxamide] | 53.9

Same assay, conditions: human, Exp 2 CC50 Hap1

Row | SMILES | CC50 [µM]
24 | COc1ccc(N(Cc2ccc(F)cc2)C(=O)c2cccs2)cc1 [Compound 5d, N-(4-Fluorobenzyl)-N-(4-methoxyphenyl)thiophene-2-carboxamide] | 54

System: EV-D68
Test: microbe, parasite or virus in culture
Format: cell-based, enterovirus D68
Settings: Enterovirus D, EVD68, HeLa R19, read-out: EC50 EV-D68

Row | SMILES | EC50 [µM]
25 | COc1ccc(N(Cc2ccc(F)cc2)C(=O)c2cccs2)cc1 [Compound 5d, N-(4-Fluorobenzyl)-N-(4-methoxyphenyl)thiophene-2-carboxamide] | 2.82 ± 0.4

Same assay, conditions: Enterovirus D, EVD68, HeLa R19, read-out: EC50 Exp1

Row | SMILES | EC50 [µM]
26 | COc1ccc(N(Cc2ccc(F)cc2)C(=O)c2cccs2)cc1 [Compound 5d, N-(4-Fluorobenzyl)-N-(4-methoxyphenyl)thiophene-2-carboxamide] | 2.42

Same assay, conditions: Enterovirus D, EVD68, HeLa R19, read-out: EC50 Exp2

Row | SMILES | EC50 [µM]
27 | COc1ccc(N(Cc2ccc(F)cc2)C(=O)c2cccs2)cc1 [Compound 5d, N-(4-Fluorobenzyl)-N-(4-methoxyphenyl)thiophene-2-carboxamide] | 3.21

System: CV-B3
Test: microbe, parasite or virus in culture
Format: cell-based, coxsackievirus B3
Settings: Enterovirus B, CVB3, HAP1, read-out: EC50 Hap1 Average

Row | SMILES | EC50 [µM]
28 | COc1ccc(N(Cc2ccc(F)cc2)C(=O)c2cccs2)cc1 [Compound 5d, N-(4-Fluorobenzyl)-N-(4-methoxyphenyl)thiophene-2-carboxamide] | 0.25

Same assay, conditions: Enterovirus B, CVB3, HAP1, read-out: Exp 1 EC50 Hap1

Row | SMILES | EC50 [µM]
29 | COc1ccc(N(Cc2ccc(F)cc2)C(=O)c2cccs2)cc1 [Compound 5d, N-(4-Fluorobenzyl)-N-(4-methoxyphenyl)thiophene-2-carboxamide] | 0.17

System: HRV-B14
Test: microbe, parasite or virus in culture
Format: cell-based, human rhinovirus
Settings: Human rhinovirus sp., HRVB14, HeLa R19, read-out: EC50 Exp1

Row | SMILES | EC50 [µM]
30 | COc1ccc(N(Cc2ccc(F)cc2)C(=O)c2cccs2)cc1 [Compound 5d, N-(4-Fluorobenzyl)-N-(4-methoxyphenyl)thiophene-2-carboxamide] | 9.65

Same assay, conditions: Human rhinovirus sp., HRVB14, HeLa R19, read-out: EC50 Exp2

Row | SMILES | EC50 [µM]
31 | COc1ccc(N(Cc2ccc(F)cc2)C(=O)c2cccs2)cc1 [Compound 5d, N-(4-Fluorobenzyl)-N-(4-methoxyphenyl)thiophene-2-carboxamide] | 8.93

Same assay, conditions: Human rhinovirus sp., HRVB14, HeLa R19, read-out: EC50 HRV-B14

Row | SMILES | EC50 [µM]
32 | COc1ccc(N(Cc2ccc(F)cc2)C(=O)c2cccs2)cc1 [Compound 5d, N-(4-Fluorobenzyl)-N-(4-methoxyphenyl)thiophene-2-carboxamide] | 9.29 ± 0.36

System: CV-B3
Test: microbe, parasite or virus in culture
Format: cell-based, coxsackievirus B3
Settings: Enterovirus B, CVB3, BGM, read-out: EC50 BGM Average

Row | SMILES | EC50 [µM]
33 | COc1ccc(N(Cc2ccc(F)cc2)C(=O)c2cccs2)cc1 [Compound 5d, N-(4-Fluorobenzyl)-N-(4-methoxyphenyl)thiophene-2-carboxamide] | 0.63

Same assay, conditions: Enterovirus B, CVB3, BGM, read-out: Exp 1 EC50 BGM

Row | SMILES | EC50 [µM]
34 | COc1ccc(N(Cc2ccc(F)cc2)C(=O)c2cccs2)cc1 [Compound 5d, N-(4-Fluorobenzyl)-N-(4-methoxyphenyl)thiophene-2-carboxamide] | 0.49

Same assay, conditions: Enterovirus B, CVB3, BGM, read-out: Exp 2 EC50 BGM

Row | SMILES | EC50 [µM]
35 | COc1ccc(N(Cc2ccc(F)cc2)C(=O)c2cccs2)cc1 [Compound 5d, N-(4-Fluorobenzyl)-N-(4-methoxyphenyl)thiophene-2-carboxamide] | 0.77
